Source: PubChem BioAssay (NCI)
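Where inhibition never reached the appropriate level, the endpoint shown equals the highest concentration tested. Otherwise, values were interpolated linearly from a five-concentration, 48-hour dose response in 96-well plates. GI50 marks 50% less growth. TGI: concentration producing complete growth inhibition.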

How the values were obtained:
Test in all cases: NCI tumour cell line growth inhibition, 48 h
MALME-3M melanoma = tested on: MALME-3M melanoma
EKVX NSCLC = tested on: EKVX NSCLC
UO-31 renal = tested on: UO-31 renal
SF-539 CNS = tested on: SF-539 CNS
HT29 colon = tested on: HT29 colon
SNB-75 CNS = tested on: SNB-75 CNS
NCI/ADR-RES ovarian = tested on: NCI/ADR-RES ovarian
A498 renal = tested on: A498 renal
MOLT-4 leukemia = tested on: MOLT-4 leukemia
SK-MEL-28 melanoma = tested on: SK-MEL-28 melanoma
RXF 393 renal = tested on: RXF 393 renal
OVCAR-3 ovarian = tested on: OVCAR-3 ovarian
LOX IMVI melanoma = tested on: LOX IMVI melanoma
SF-268 CNS = tested on: SF-268 CNS
ACHN renal = tested on: ACHN renal
OVCAR-5 ovarian = tested on: OVCAR-5 ovarian
HCC-2998 colon = tested on: HCC-2998 colon
CCRF-CEM leukemia = tested on: CCRF-CEM leukemia
UACC-257 melanoma = tested on: UACC-257 melanoma
SK-MEL-5 melanoma = tested on: SK-MEL-5 melanoma
RPMI-8226 leukemia = tested on: RPMI-8226 leukemia
UACC-62 melanoma = tested on: UACC-62 melanoma
T-47D breast = tested on: T-47D breast
M14 melanoma = tested on: M14 melanoma
NCI-H226 lung = tested on: NCI-H226 lung
SW-620 colon = tested on: SW-620 colon
NCI-H23 lung = tested on: NCI-H23 lung
KM12 colon = tested on: KM12 colon
K-562 leukemia = tested on: K-562 leukemia
HCT-15 colon = tested on: HCT-15 colon
DU-145 prostate = tested on: DU-145 prostate
PC-3 prostate = tested on: PC-3 prostate
TK-10 renal = tested on: TK-10 renal
HOP-62 NSCLC = tested on: HOP-62 NSCLC
NCI-H460 lung = tested on: NCI-H460 lung
HOP-92 NSCLC = tested on: HOP-92 NSCLC
SN12C renal = tested on: SN12C renal
NCI-H522 lung = tested on: NCI-H522 lung
SNB-19 CNS = tested on: SNB-19 CNS
BT-549 breast = tested on: BT-549 breast
SR leukemia = tested on: SR leukemia
HL-60(TB) leukemia = tested on: HL-60(TB) leukemia
U251 CNS = tested on: U251 CNS
A549 NSCLC = tested on: A549 NSCLC
786-0 renal = tested on: 786-0 renal
HS 578T breast = tested on: HS 578T breast
SK-MEL-2 melanoma = tested on: SK-MEL-2 melanoma
SF-295 CNS = tested on: SF-295 CNS
OVCAR-4 ovarian = tested on: OVCAR-4 ovarian
MDA-MB-435 = tested on: MDA-MB-435
OVCAR-8 ovarian = tested on: OVCAR-8 ovarian
IGROV1 ovarian = tested on: IGROV1 ovarian
MDA-MB-231 breast = tested on: MDA-MB-231 breast
COLO 205 colon = tested on: COLO 205 colon
SK-OV-3 ovarian = tested on: SK-OV-3 ovarian
MCF7 breast = tested on: MCF7 breast
CAKI-1 renal = tested on: CAKI-1 renal
HCT-116 colon = tested on: HCT-116 colon

## C#CC[C@@H]1C[C@]2(C)[C@H]3CC[C@@H]4[C@H]5[C@H](C(=C)C)CC[C@]5(C(=O)O)CC[C@@]4(C)[C@]3(C)CC[C@H]2C(C)(C)[C@H]1O
MALME-3M melanoma
  GI50: 2.53 µM
  TGI: 5.83 µM
EKVX NSCLC
  GI50: 2.63 µM
  TGI: 10.6 µM
UO-31 renal
  GI50: 1.83 µM
  TGI: 5.33 µM
SF-539 CNS
  GI50: 2.67 µM
  TGI: 7.88 µM
HT29 colon
  GI50: 1.93 µM
  TGI: 3.69 µM
SNB-75 CNS
  GI50: 1.95 µM
  TGI: 4.12 µM
NCI/ADR-RES ovarian
  GI50: 2.03 µM
  TGI: 5.24 µM
A498 renal
  GI50: 1.88 µM
  TGI: 4.19 µM
MOLT-4 leukemia
  GI50: 3.16 µM
  TGI: > 100 µM
SK-MEL-28 melanoma
  GI50: 2.75 µM
  TGI: 7.6 µM
RXF 393 renal
  GI50: 1.7 µM
  TGI: 3.52 µM
OVCAR-3 ovarian
  GI50: 1.7 µM
  TGI: 3.15 µM
LOX IMVI melanoma
  GI50: 2.63 µM
  TGI: 8.67 µM
SF-268 CNS
  GI50: 2.81 µM
  TGI: 10.1 µM
ACHN renal
  GI50: 1.5 µM
  TGI: 3.18 µM
OVCAR-5 ovarian
  GI50: 3.07 µM
  TGI: 11.6 µM
HCC-2998 colon
  GI50: 4.44 µM
  TGI: 38.5 µM
CCRF-CEM leukemia
  GI50: 2.36 µM
  TGI: 9.02 µM
UACC-257 melanoma
  GI50: 3.73 µM
  TGI: 13.4 µM
SK-MEL-5 melanoma
  GI50: 2.27 µM
  TGI: 5.58 µM
RPMI-8226 leukemia
  GI50: 1.68 µM
  TGI: 14.7 µM
UACC-62 melanoma
  GI50: 2.64 µM
  TGI: 9.84 µM
T-47D breast
  GI50: 1.79 µM
  TGI: 4.66 µM
M14 melanoma
  GI50: 2.05 µM
  TGI: 4.68 µM
NCI-H226 lung
  GI50: 2.05 µM
  TGI: 6.56 µM
SW-620 colon
  GI50: 1.98 µM
  TGI: 4.28 µM
NCI-H23 lung
  GI50: 2.38 µM
  TGI: 6.95 µM
KM12 colon
  GI50: 1.64 µM
  TGI: 4.83 µM
K-562 leukemia
  GI50: 2.32 µM
  TGI: 20.9 µM
HCT-15 colon
  GI50: 1.89 µM
  TGI: 6.61 µM
DU-145 prostate
  GI50: 3.23 µM
  TGI: 10.8 µM
PC-3 prostate
  GI50: 1.5 µM
  TGI: 3.52 µM
TK-10 renal
  GI50: 1.85 µM
  TGI: 4.44 µM
HOP-62 NSCLC
  GI50: 2.08 µM
  TGI: 5.28 µM
NCI-H460 lung
  GI50: 1.62 µM
  TGI: 3.18 µM
HOP-92 NSCLC
  GI50: 1.7 µM
  TGI: 4.18 µM
SN12C renal
  GI50: 2.98 µM
  TGI: 11.6 µM
NCI-H522 lung
  GI50: 2.95 µM
  TGI: 12.3 µM
SNB-19 CNS
  GI50: 3.04 µM
  TGI: 13.4 µM
BT-549 breast
  GI50: 2.52 µM
  TGI: 8.73 µM
SR leukemia
  GI50: 3.12 µM
  TGI: 11.9 µM
HL-60(TB) leukemia
  GI50: 2.57 µM
  TGI: > 100 µM
U251 CNS
  GI50: 1.57 µM
  TGI: 3.03 µM
A549 NSCLC
  GI50: 1.31 µM
  TGI: 2.8 µM
786-0 renal
  GI50: 1.71 µM
  TGI: 3.4 µM
HS 578T breast
  GI50: 2.34 µM
  TGI: 7.01 µM
SK-MEL-2 melanoma
  GI50: 2.4 µM
  TGI: 6.78 µM
SF-295 CNS
  GI50: 1.45 µM
  TGI: 3.17 µM
OVCAR-4 ovarian
  GI50: 1.93 µM
  TGI: 3.83 µM
MDA-MB-435
  GI50: 3.03 µM
  TGI: 10.8 µM
OVCAR-8 ovarian
  GI50: 2.17 µM
  TGI: 4.81 µM
IGROV1 ovarian
  GI50: 4.21 µM
  TGI: 15.6 µM
MDA-MB-231 breast
  GI50: 2.32 µM
  TGI: 6.11 µM
COLO 205 colon
  GI50: 2.09 µM
  TGI: 4.68 µM
SK-OV-3 ovarian
  GI50: 2.39 µM
  TGI: 5.25 µM

## O/N=C(\C=N\O)c1ccc2c(c1)Sc1ccccc1O2
MALME-3M melanoma
  TGI: 72.5 µM
EKVX NSCLC
  TGI: 48.9 µM
MCF7 breast
  TGI: 40.6 µM
UO-31 renal
  TGI: 54 µM
SF-539 CNS
  TGI: 82.4 µM
HT29 colon
  TGI: 49.7 µM
SNB-75 CNS
  TGI: 50.3 µM
A498 renal
  TGI: 41.6 µM
MOLT-4 leukemia
  TGI: 32.7 µM
SK-MEL-28 melanoma
  TGI: 75.3 µM
RXF 393 renal
  TGI: 36 µM
OVCAR-3 ovarian
  TGI: 48.8 µM
LOX IMVI melanoma
  TGI: > 100 µM
SF-268 CNS
  TGI: 38.4 µM
ACHN renal
  TGI: 42.8 µM
OVCAR-5 ovarian
  TGI: 87.5 µM
HCC-2998 colon
  TGI: 41.9 µM
CCRF-CEM leukemia
  TGI: 7.43 µM
UACC-257 melanoma
  TGI: 42 µM
RPMI-8226 leukemia
  TGI: 38.9 µM
UACC-62 melanoma
  TGI: 37.7 µM
T-47D breast
  TGI: 74.7 µM
M14 melanoma
  TGI: 39.6 µM
NCI-H226 lung
  TGI: 69.6 µM
SW-620 colon
  TGI: 78.7 µM
CAKI-1 renal
  TGI: 61.1 µM
NCI-H23 lung
  TGI: 60.3 µM
KM12 colon
  TGI: > 100 µM
K-562 leukemia
  TGI: 85.4 µM
HCT-15 colon
  TGI: 75.2 µM
DU-145 prostate
  TGI: > 100 µM
PC-3 prostate
  TGI: 66.1 µM
TK-10 renal
  TGI: 84.1 µM
HOP-62 NSCLC
  TGI: 36.8 µM
NCI-H460 lung
  TGI: 60.5 µM
HOP-92 NSCLC
  TGI: 36.8 µM
SN12C renal
  TGI: 37.1 µM
NCI-H522 lung
  TGI: 8.17 µM
SNB-19 CNS
  TGI: 67.8 µM
BT-549 breast
  TGI: 40.7 µM
SR leukemia
  TGI: 75.9 µM
HL-60(TB) leukemia
  TGI: 59.8 µM
HCT-116 colon
  TGI: 45.7 µM
U251 CNS
  TGI: 98.7 µM
A549 NSCLC
  TGI: > 100 µM
786-0 renal
  TGI: 38.6 µM
HS 578T breast
  TGI: > 100 µM
SF-295 CNS
  TGI: 46.3 µM
OVCAR-4 ovarian
  TGI: 74.2 µM
MDA-MB-435
  TGI: 33.9 µM
OVCAR-8 ovarian
  TGI: 74.8 µM
MDA-MB-231 breast
  TGI: 38.4 µM
COLO 205 colon
  TGI: 54.3 µM
SK-OV-3 ovarian
  TGI: 40.2 µM
